Paper PMC9233675, “Ru(II) photocages enable precise control over enzyme activity with red light” (Nature Communications, 2022)
Where a chain is given by its changes, count along the chain named. Several values for one entry are separate records, joined by “and”; a condition that tells them apart may be missing. Identical values can stand only once. Like-named read-outs stand apart in the source and are kept apart here.

Tests used:
CYP1B1 F134L = target: T1, CYP1B1 F134L (Homo sapiens, UniProt Q16678, F134L); assay: In cell CYP1B1 activity assay, F134L variant; conditions: for logSI F134L: log of the ratio of IC50 values mutant vs WT (Fig. 3c)
T1 sequence (Q16678 1-543 F134L): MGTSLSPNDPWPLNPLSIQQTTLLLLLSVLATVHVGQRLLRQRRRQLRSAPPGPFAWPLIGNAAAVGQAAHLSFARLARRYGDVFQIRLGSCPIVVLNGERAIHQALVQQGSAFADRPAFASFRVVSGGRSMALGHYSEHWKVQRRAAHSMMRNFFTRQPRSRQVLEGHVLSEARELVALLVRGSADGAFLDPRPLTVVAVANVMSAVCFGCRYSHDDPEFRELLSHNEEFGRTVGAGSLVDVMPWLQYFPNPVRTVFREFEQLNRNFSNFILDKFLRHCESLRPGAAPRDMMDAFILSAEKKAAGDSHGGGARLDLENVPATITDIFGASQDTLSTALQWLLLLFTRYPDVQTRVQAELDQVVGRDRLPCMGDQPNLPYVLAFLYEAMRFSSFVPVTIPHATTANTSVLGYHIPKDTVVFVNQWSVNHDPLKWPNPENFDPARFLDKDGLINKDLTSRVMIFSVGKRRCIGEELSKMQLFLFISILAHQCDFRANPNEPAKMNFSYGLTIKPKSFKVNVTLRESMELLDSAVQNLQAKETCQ
From the text: (§1) Site directed mutagenesis was used to probe the importance of specific active-site contacts identified through the structural assessment (Fig. 3a, b) and simulations. In all cases, conservative mutations were made to maintain polar or hydrophobic character and approximate size. The aromatic residues that frame the inhibitor binding site, Phe143 and Phe231, were mutated to Leu to determine the importance of the π interactions. In addition, the Ser127 residue, located in the upper corner of the active site on the B-C loop, was chosen for mutation based on the simulations. This amino acid transiently contacts the inhibitors, but also forms a hydrogen bond with Asp326 of the I-helix, and thus may impact the position of this helix with regards to the B-C loop. […] Rather than directly mutating these residues in the I-helix, neighboring residues Gln332 and Asp333 were targeted, with the hope of interrupting amino acid interactions that position the helix within the active site.
(§2) The ratio of IC50 values for the WT vs. the mutant are shown in Fig. 3c and reflects the importance of the specific contact; the log of the value is used to aid in visualization.
(§3) Cell lines were seeded onto Geltrex coated 96-well plates at 40,000 cells/well, and grown overnight in DMEM media containing 1 μg/mL tetracycline. The media was then replaced with Opti-MEM supplemented with 2% FBS and 1 μg/mL tetracycline. Compounds were serially diluted in Opti-MEM supplemented with 2% FBS and 1 μg/mL tetracycline and an equal volume of compound added to the cells (n = 3). Following a 1 h incubation, resorufin ethyl ether (REE; for CYP1B1 and 1A1) or dibenzylfluorescein (DBF; for 19A1) was added to the cells for a total concentration of 5 μM for REE and 1 μM for DBF. […] Dose–response curves were generated in Prism and normalized using the no-compound control (set as 100% activity) and the no-cell control (set as 0% activity; this value in the raw data reflects the background fluorescence of the dye alone).

CYP1B1 S269A = target: T2, CYP1B1 S269A (Homo sapiens, UniProt Q16678, S269A); assay: In cell CYP1B1 activity assay, S269A variant; conditions: for logSI S269A: log of the ratio of IC50 values mutant vs WT (Fig. 3c)
T2 sequence (Q16678 1-543 S269A): T1 sequence (Q16678 1-543 F134L) with L134F, S269A
From the text: as §1, §2, §3

CYP19A1 = target: T3, CYP19A1 (Homo sapiens, UniProt P11511); assay: In cell activity assay for CYP19A1 (dibenzylfluorescein conversion, HEK293 T-Rex cells); assay type: cell-based; conditions: for SI (1B1:19A1): ratio of IC50 CYP19A1 to CYP1B1, for complexes 4–6 IC50 (light); for % Enzyme Activity: CYP19A1, dark
T3 sequence (P11511 1-503): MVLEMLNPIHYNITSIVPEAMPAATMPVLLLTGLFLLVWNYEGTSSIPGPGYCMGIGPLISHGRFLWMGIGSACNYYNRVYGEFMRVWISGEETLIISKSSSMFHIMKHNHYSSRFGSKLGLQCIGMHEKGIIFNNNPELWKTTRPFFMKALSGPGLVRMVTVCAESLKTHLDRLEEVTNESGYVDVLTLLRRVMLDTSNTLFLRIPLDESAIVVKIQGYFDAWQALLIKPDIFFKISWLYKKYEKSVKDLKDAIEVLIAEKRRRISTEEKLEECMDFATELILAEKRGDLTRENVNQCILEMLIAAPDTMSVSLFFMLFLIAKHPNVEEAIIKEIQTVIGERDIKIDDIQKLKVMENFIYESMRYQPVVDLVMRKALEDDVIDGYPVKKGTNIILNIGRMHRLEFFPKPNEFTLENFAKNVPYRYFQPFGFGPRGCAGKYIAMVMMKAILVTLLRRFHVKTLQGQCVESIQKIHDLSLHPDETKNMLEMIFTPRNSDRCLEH
Method: Thus, the activity against CYP19A1 was evaluated using a recently developed in-cell fluorometric assay.
REE or DBF was added as described above.

[1] = Stability of compounds in human liver microsomes; conditions: for Remaining, % (NCF=60min): human liver microsomes, no co-factor (no NADPH); for CLint scaled / Remaining, % (T=60min) / half-life / microsomal CLint: human, liver microsomes
CYP1B1 D333N = target: T4, CYP1B1 D333N (Homo sapiens, UniProt Q16678, D333N); assay: In cell CYP1B1 activity assay, D333N variant; conditions: for logSI D333N: log of the ratio of IC50 values mutant vs WT (Fig. 3c)
T4 sequence (Q16678 1-543 D333N): T1 sequence (Q16678 1-543 F134L) with L134F, D333N
From the text: as §1, §2, §3

[2] = Dark, conversion of dibenzylfluorescein (DBF), read-out: IC50 CYP19A1 Dark
[3] = Light: 660 nm, 58.7 J/cm^2, DBF, read-out: IC50 CYP19A1 Light

SMILES | logSI F134L (CYP1B1 F134L) | logSI S269A (CYP1B1 S269A) | IC50 (CYP19A1; [2]) [µM] | Remaining, % (NCF=60min) [1] [%] | logSI D333N (CYP1B1 D333N) | CLint scaled [1] [mL/min/kg] | Remaining, % (T=60min) [1] [%] | half-life [1] [min] | microsomal CLint [1] [µL/min/mg] | IC50 (CYP19A1; [3]) [µM] | SI (1B1:19A1) (CYP19A1) | further results
COc1cc(/C=C/c2ccc(OC)cc2OC)cc(OC)c1 [Compound 1, reference compound] | 1 | 0.3 | > 30 | 77.1 | 2 |  |  |  |  |  |  | 
COc1ccc(/C=C/c2ccncn2)c(OC)c1 [Compound 2] | 0.5 | 0 | 10.7 | 96.5 | 1.8 | 181 | 0.4 | 6.9 | 201 |  |  | IC50 (CYP1B1 F134L): 0.24 µM; Ratio IC50 (mutant)/ IC50 (WT), F134L (CYP1B1 F134L): 3; IC50 (CYP1B1 S269A): 0.073 µM; Ratio IC50 (mutant)/ IC50 (WT), S269A (CYP1B1 S269A): 1; IC50 (CYP1B1 D333N): 5 µM; Ratio IC50 (mutant)/ IC50 (WT), D333N (CYP1B1 D333N): 66
COc1ccc(C=Cc2ccncc2)c(OC)c1 [Compound 3] | 1.7 | 0.8 | 14.4 | 92.1 | 3.4 | 155 | 0.6 | 8.07 | 172 |  |  | 
COc1ccc(/C=C/c2cc[n+]([Ru-4]345([n+]6ccccc6-c6cccc([n+]63)-c3cccc[n+]34)[n+]3c(cc(C(=O)[O-])c4ccccc43)-c3cc(C(=O)[O-])c4ccccc4[n+]35)cn2)c(OC)c1 [Compound 5] |  |  | 28.3 |  |  |  |  |  |  | 11.2 | 660 | impact on CYP19A1 (CYP19A1; at concentrations ≥10 μM (so in the source)): no impact
COc1ccc(/C=C/c2cc[n+]([Ru-4]345([n+]6ccccc6-c6cccc([n+]63)-c3cccc[n+]34)[n+]3c(cc(C(=O)[O-])c4ccccc43)-c3cc(C(=O)[O-])c4ccccc4[n+]35)cc2)c(OC)c1 [Compound 6] |  |  | > 30 |  |  |  |  |  |  | 18.8 | 62,800 | % Enzyme Activity (CYP19A1; Log Conc 0.045757): 105.406% and 101.538% and 104.022%; % Enzyme Activity (CYP19A1; Log Conc 0.522879): 104.302% and 98.6869% and 100.038%; % Enzyme Activity (CYP19A1; Log Conc 1): 98.3957% and 97.4287% and 99.555%; % Enzyme Activity (CYP19A1; Log Conc 1.47712): 84.792% and 87.3743% and 76.9903%; % Enzyme Activity (CYP19A1; Log Conc -0.43136): 108.571% and 102.071% and 105.115%; % Enzyme Activity (CYP19A1; Log Conc -0.90849): 106.835% and 107.302% and 104.318%; % Enzyme Activity (CYP19A1; Log Conc -1.38561): 104.082% and 105.269% and 104.335%; % Enzyme Activity (CYP19A1; Log Conc -1.86273): 107.692% and 92.0059% and 100.302%
